Measured values: patent US6127355A (priority 1999, dated 2000)
Read-outs that look alike come from different tables or passages of the source.

How the values were obtained:
[1] = tested on: HT-29 (human colon carcinoma) cells; experiment: cells; type: cell-based; settings: read-out: IC50 (nM) HT-29
Protocol: (§1) In this example, a series of in vitro assays were conducted to determine the IC50 for unmodified camptothecin, unmodified paclitaxel and several of the high molecular weight prodrugs prepared as set forth above.
(§2) All compounds were independently tested against one or more of the P388/0 (murine lymphoid neoplasm, Southern Research Institute), HT-29 (human colon carcinoma) and A549 (human lung adeno carcinoma) cell lines.
(§3) The P388/0 cells were grown in RPMI 1640 medium (Whittaker Bioproducts, Walkersville, Md.)+10% FBS (Hyclone Inc., Logan Utah). The HT-29 cells were grown in DMEM (GIBCOBRL)+10% FBS (Hyclone, Inc.). The A549 cells were grown in DMEM/F-12 (Biowhitaker)+10% FBS (Heat inactivated). Bioassays were performed in their respective media containing antibiotics and fungizone.
(§4) Camptothecin and paclitaxel were dissolved in DMSO and diluted to the appropriate concentration in culture media. The PEG-Camptothecin and PEG-paclitaxel prodrugs were dissolved in water and diluted to the appropriate concentrations in culture media.
(§5) The assays were performed in duplicate in 96-well microtiter cell culture plates. Two fold serial dilution of the compounds were done in the microtiter plates. Cells were detached by incubating with 0.1% Trypsin/Versene at 37°. Trypsin was inactivated by adding the appropriate media for each cell line containing 10% FBS. To each well of the microtiter plates, 10,000 cells were added. After three days, cell growth was measured by addition of a metabolic indicator dye, Alamar Blue, according to the manufacturer's protocol. The IC50 value for each test compound was determined and compared to the IC50 for the appropriate reference compound.
HT29 Human colon carcinoma cell line

[2] = tested on: P388/0 (murine lymphoid neoplasm) cells; experiment: cells; type: cell-based; settings: read-out: IC50 (nM) P388
Protocol: as §1, §2, §3, §4, §5
P-388 Murine leukemia cell line

[3] = tested on: murine leukemia cell line P388/0; experiment: Murine Leukemia Model (In vivo P388); set-up: species or system mouse; settings: ip, days 1-5; for Survival Rate %: survival at 40 days
Protocol: (§6) In this Example, the in vivo activity of some of the compounds prepared in accordance with the present invention was assessed using the Murine Leukemia Model and the Colorectal Xenograft model.
The compounds shown in the Table below were screened for in vivo activity against the murine leukemia cell line P388/0 (mouse, lymphoid neoplasm). The cell line was obtained from Southern Research Institute (Birmingham, Ala.) and grown in RPMI 1640 supplemented with 10% FBS. P388/0 cells were subcultured two times per week and log phase cultures (viability ≥95%/o) were used for all in vivo experiments. Female CD2F1 mice (Taconic Farms, Germantown, N.Y.) at 7-8 weeks of age were used for study. Following one week of acclimation, mice were implanted ip with P388/0 cells (5×10^5 cells/mouse) at designated day 0 (zero). The mice were randomly assigned to experimental groups (10-20 per group). The groups included Control groups and several which received one of the drugs or prodrugs. The mice were then dosed (500 μL, ip) for 5 consecutive days (days 1-5). Control groups received vehicle (intralipid or water). The mice were monitored for up to 40 days, and the treatment was evaluated and expressed as the percentage survival at 40 days.

[4] = tested on: one or more of the P388/0, HT-29 and A549 cell lines; experiment: cells; type: cell-based
Protocol: as §1, §2, §3, §4, §5
The IC50 values for some of the compounds formed in examples 47-53 were determined using the same process as that described above with regard to example 45 and compared to native camptothecin.

[5] = Colorectal Xenograft (In vivo HT-29); set-up: species or system human tumor in nu/nu mice; settings: mouse, in vivo, ip; week 5 (end of treatment); total active dose 62.5 mg/kg
Protocol: as §6
(§7) Female nu/nu mice (Harlan Sprague Dawley, Madison, Wis.), 18-24 g and 10-14 weeks old, at onset of treatment were used. The solid tumor HT-29 (human, colon adenocarcinoma) was obtained from the ATCC (HTB 38) and grown in DMEM supplemented with 10% FBS. Cells were subcultured once a week and for in vivo experiments viabilities were ≥90%. Mice were housed in microisolator filtration racks, and maintained with filtered acidified water and sterile laboratory chow ad libitum. Following one week of acclimation, tumors were established by injecting 1×10^6 harvested HT-29 tumor cells in a single subcutaneous site, on the flank of mice in the left axillary region. The tumor injection site was observed twice weekly and measured once palpable. The tumor volume for each mouse was determined by measuring two dimensions with calipers and calculated using the formula: tumor volume=(length×width^2)/2. When tumors reached the average volume of 300 mm^3, the mice were divided into their experimental groups. The non-Control groups received Camptothecin 2.5 mg/kg/day, the prodrugs being dosed on the basis of camptothecin content. The mice were sorted to evenly distribute tumor size, grouped into 5 mice/cage, and ear punched for permanent identification. Mice receiving drugs were treated i.p. 5 times a week, Monday through Friday for 5 weeks with 500 μL of test article. Mouse weight and tumor size were measured at the beginning of study and weekly through week 7. The overall growth of tumors was expressed as the percent change in tumor size calculated by subtracting mean initial tumor volume from mean tumor volume at the end of the treatment and dividing by mean initial tumor volume.

[6] = tested on: solid tumor HT-29 (human, colon adenocarcinoma); experiment: Colorectal Xenograft (In vivo HT-29); set-up: species or system human tumor in nu/nu mice; settings: total active dose 62.5 mg/kg, i.p.
Protocol: as §6, §7

[7] = cell line not stated, same process as example 45, read-out: IC50

In the case of CC[C@@]1(O)C(=O)OCc2c1cc1n(c2=O)Cc2cc3ccccc3nc2-1 [Camptothecin, reference compound], the IC50 ([1]; Homo sapiens, HT-29, 72 h) is reported as 21 nM, the IC50 ([2]; Mus musculus, P388, 72 h) is reported as 5 nM and the “Survival Rate %” value ([3]; total active dose 16 mg/kg) is reported as 80%. For the same compound, the IC50 [4] was 7 nM, the mortality at 840 h [5] was 50% and the “Body weight change (%)” value ([6]; week 5 (end of treatment)) was -3%. The “Tumor growth (%)” value ([6]; week 5 (end of treatment)) was -20%, the “Body weight change (%)” value ([6]; week 7 (2 week post treatment)) was -3% and the “Tumor growth (%)” value ([6]; week 7 (2 week post treatment)) was 62%.

Compound CC[C@@]1(OC(=O)n2ccnc2)C(=O)OCc2c1cc1n(c2=O)Cc2cc3ccccc3nc2-1 [Compound 54, camptothecin-20-O-carbonylimidazolyl carbonate] has an IC50 ([4]; read-out: IC50) of 69 nM.

With CC[C@@]1(OC(=O)Oc2ccc([N+](=O)[O-])cc2)C(=O)OCc2c1cc1n(c2=O)Cc2cc3ccccc3nc2-1 [Compound 55, camptothecin-20-O-paranitrophenyl carbonate] the IC50 [4, 7] was 365 nM.

Work on CC[C@@]1(OC(=O)ON2C(=O)CCC2=O)C(=O)OCc2c1cc1n(c2=O)Cc2cc3ccccc3nc2-1 [Compound 56, camptothecin-20-O-N-hydroxysuccinimidyl carbonate] yielded an IC50 [4, 7] of 1030 nM.

CC[C@@]1(OC(=O)OC)C(=O)OCc2c1cc1n(c2=O)Cc2cc3ccccc3nc2-1 [Compound 59, camptothecin-20-O-methyl carbonate] gave an IC50 [4, 7] of 11 nM.

CC[C@@]1(OC(=O)OCC(C)C)C(=O)OCc2c1cc1n(c2=O)Cc2cc3ccccc3nc2-1 [Compound 60, camptothecin-20-O-isobutyryl carbonate] gave an IC50 ([4]; read-out: IC50) of 29 nM.

With CC[C@@]1(O)C(=O)OCc2c1cc1n(c2=O)Cc2cc3c(CN(C)C)c(O)ccc3nc2-1 [Topotecan, reference compound] the IC50 ([1]; 72 h, HT-29 human colon carcinoma cell line, three days) was 99 nM and the IC50 ([2]; Mus musculus, 72 h, P388 murine leukemia cell line, three days) was 29 nM.

“Bis-Camptothecin-N-Acetyl-PEG40kDa -20-O-Glycinate [Compound 37b]” gave an IC50 [1] of 137 nM and an IC50 [2] of 49 nM.

Compound “Bis-Camptothecin-N-PEG40kDa -20-O-Glycinate [Compound 37a]” has an IC50 [1] of 110 nM and an IC50 [2] of 24 nM.

With “Camptothecin-20-O-Glycinate PEG40kDa -Amide Derivative [Compound 48]” the “Survival Rate %” value ([3]; total active dose 16 mg/kg) was 80%, the “Tumor growth (%)” value ([6]; week 5 (end of treatment)) was -80% and the “Tumor growth (%)” value ([6]; week 7 (2 week post treatment)) was -96%.

With “Camptothecin-20-O-Glycinate PEG40kDa Carbamate Derivative [Compound 49]” the IC50 [1] was 40 nM and the IC50 [2] was 33 nM.

“Camptothecin-20-O-ester of 2-PEG40k N-methylcarbamoyl Acetic Acid [Compound 5b]” showed an IC50 [1] of 153 nM and an IC50 [2] of 18 nM.

Work on “Camptothecin-20-O-ester of 2-PEG40kDa Carbamoylacetic Acid [Compound 5a]” yielded an IC50 ([1]; HT-29 human colon carcinoma cell line, three days) of 30 nM and an IC50 ([2]; P388 murine leukemia cell line, three days) of 7 nM.

In the case of “Camptothecin-20-O-ester of PEG20kDa diacid”, the “50% survival” value ([3]; total active dose 11.4 mg/kg) is reported as 21 days and the “Survival Rate %” value ([3]; total active dose 11.4 mg/kg) is reported as 10%.

Compound “camptothecin-20-O-PEG5kDa carbamate [Compound 57]” has an IC50 [4, 7] of 912 nM.
